Measurements as given in US10717758B2, “D-amino acid compounds for liver disease” (priority 2012, dated 2020).
One block for each compound: values may come before it.

Tests used:
[1] = system: Zluc cells; assay: Cytotoxicity evaluation in Zluc cells (CellTiter-Blue); format: cell-based, human; settings: read-out: HCV Replicon CC50
Protocol: For cytotoxicity evaluation, Zluc cells were treated with compound as described herein, and cell viability was monitored using the CellTiter-Blue Cell Viability Assay (Promega) by adding 20 μL of the assay solution to each well. The plates were then incubated at 37° C./5% CO2 for at least 3 hours.

[2] = system: Huh-7 cells; assay: Release of active metabolite in Huh-7 cells; format: in vitro ADME, human
Protocol: Huh-7 cells were plated in 1 mL culture medium (DMEM, containing glucose, L-glutamine and sodium pyruvate, 10% FBS, 100 IU/mL penicillin, 100 μg/mL streptomycin, 2 mM GlutaMAX, 1% MEM non-essential amino acids) at the concentration 0.8, 0.4 and 0.2 million cells per well on 6 well plates for 24, 48 and 72 hr treatment, respectively. Plated cells were incubated overnight at 37° C. in an incubator.
The following morning test compound was diluted to 20 μM from a stock solution in DMSO in fresh culture medium pre-warmed to 37° C. and 1 mL of the solution/well was added to cells. A final medium volume per well was 2.0 mL, test compound concentration in well was 10 μM and final DMSO concentration was 0.1%.
After 24, 48 or 72 hr, the medium was carefully removed and cell monolayers were washed twice with 2 mL ice-cold PBS per well. Following the last wash, all PBS was carefully removed and 1.0 mL of extraction solution (ice-cold 70% methanol) added. The plate was tightly covered with Parafilm, plastic plate cover and Parafilm again and an intracellular content was extracted at −20° C. for 24 hr.
After 24 hr the extracts were transferred into polypropylene microfuge tubes and dry on a refrigerated centrivap concentrator. Dry residues were reconstituted in 250 μL of HPLC-grade water and centrifuged at 16,000×g for 10 min. Aliquots (100 μL each) of the supernatants were transferred into a 96 well plate and internal standard (4 ng/mL final concentration) was added as the internal standard (IS) for LC-MS/MS analysis.

[3] = target: T1, cathepsin A (CatA) (Homo sapiens, UniProt P10619); assay: Hydrolysis of prodrugs by Cathepsin A; format: in vitro ADME
T1 sequence (P10619 29-326 limits assumed): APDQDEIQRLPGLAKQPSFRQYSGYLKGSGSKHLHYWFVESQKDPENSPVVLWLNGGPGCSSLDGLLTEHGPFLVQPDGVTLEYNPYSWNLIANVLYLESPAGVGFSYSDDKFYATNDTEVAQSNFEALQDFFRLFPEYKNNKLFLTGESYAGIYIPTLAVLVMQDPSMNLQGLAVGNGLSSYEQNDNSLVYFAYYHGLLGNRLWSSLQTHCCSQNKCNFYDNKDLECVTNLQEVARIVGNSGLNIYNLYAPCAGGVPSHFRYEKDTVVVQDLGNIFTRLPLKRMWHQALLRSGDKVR
T1 sequence (P10619 327-480 limits assumed): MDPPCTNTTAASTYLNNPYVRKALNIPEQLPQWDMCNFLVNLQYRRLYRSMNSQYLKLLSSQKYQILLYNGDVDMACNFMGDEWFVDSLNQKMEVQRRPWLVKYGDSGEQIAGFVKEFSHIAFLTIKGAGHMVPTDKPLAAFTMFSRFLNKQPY
Protocol: CatA, cathepsin L (CatL) and CES1 were purchased from R & D Systems (Minneapolis, Minn.). Prior to the enzymatic hydrolysis reactions, CatA was activated according to the manufacturer's instruction. Briefly, CatA (0.05 μg/μL) was incubated with CatL (0.005 μg/μL) for 30 min at 37° C. in 25 mM MES pH 6.0 containing 5 mM DTT. The reaction was stopped by addition of the CatL specific inhibitor E64 (10 μM).
The CatA assay was performed at 37° C. The reaction mixture contained 25 mM MES buffer pH 6.0, 100 mM NaCl, 4 mM DTT and 100 μM of the compound. The reaction was started by addition of the activated CatA enzyme to a final concentration of 0.005 μg/μL. […] Reactions were stopped by mixing the sample with an equal volume of ice-cold methanol, and were loaded on a HPLC for analysis.

[4] = target: T2, carboxylesterase 1 (CES1) (Homo sapiens, UniProt P23141); assay: Hydrolysis of prodrugs by Carboxylesterase 1; format: in vitro ADME; settings: for CES1 hydrolysis: 100 μM compound, 37° C., pH 7.5
T2 construct: purchased R & D Systems (Minneapolis, Minn.)
T2 sequence (P23141 18-567): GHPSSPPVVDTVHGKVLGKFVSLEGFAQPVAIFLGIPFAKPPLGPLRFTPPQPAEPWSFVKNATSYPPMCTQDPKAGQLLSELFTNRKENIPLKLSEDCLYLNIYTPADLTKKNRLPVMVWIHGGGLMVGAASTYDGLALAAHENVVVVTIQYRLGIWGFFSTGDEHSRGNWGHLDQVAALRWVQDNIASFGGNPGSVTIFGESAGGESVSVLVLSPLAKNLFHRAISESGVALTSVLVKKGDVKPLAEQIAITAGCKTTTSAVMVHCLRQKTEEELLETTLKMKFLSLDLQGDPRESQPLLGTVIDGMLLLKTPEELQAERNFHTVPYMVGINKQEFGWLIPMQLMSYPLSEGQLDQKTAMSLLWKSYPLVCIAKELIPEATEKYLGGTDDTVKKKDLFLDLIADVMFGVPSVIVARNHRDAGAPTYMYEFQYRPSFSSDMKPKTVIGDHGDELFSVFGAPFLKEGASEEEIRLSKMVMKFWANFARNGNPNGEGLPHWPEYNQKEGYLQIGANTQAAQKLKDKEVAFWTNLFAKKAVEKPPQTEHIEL
Protocol: CES1 assay was performed at 37° C. in the reaction mixture containing 50 mM Tris/HCl buffer pH 7.5 and 100 μM of the compound. Reaction was started by addition of the CES1 to the final concentration 0.01 μg/mL. 100 μL aliquots were taken after 0.5 min, 3 hrs and 21 hrs of the incubation and the reaction was stopped by mixing with 100 μl of the ice-cold methanol prior to HPLC analysis.
Samples were analyzed by HPLC using 5 μC-18, 4.6×250 mm Phenomenex® Columbus column (Phenomenex USA, Calif.). The mobile phase consisted of buffer A (25 mM potassium phosphate with 5 mM tetrabutylammonium dihydrogen phosphate pH 6.3) and buffer B (100% methanol).

[5] = Plasma nucleoside and liver triphosphate PK after single oral dose (Example 4); format: in vivo, CD-1 mice; settings: at 1 μmol/kg, single oral dose 10 mg/kg in PEG 200
Protocol: Plasma samples were analyzed for nucleoside by LC-MS/MS. The internal standard (IS) was either 2′-MeG-D3 or tiapride. For protein precipitation and extraction, each plasma sample (50 μL) was treated with 500 μL of 0.2% formic acid in acetonitrile and 20 μL of the internal standard working solution. After vortexing and centrifugation, 500 μL of the sample extracts were transferred to a new plate, dried under N2 at ˜28° C. and reconstituted with 75 μL of 0.2% FA in water. The extracts were chromatographed on an Aquasil C18 column using a gradient system of 0.2% formic acid in water and acetonitrile. The analytes were detected and quantified by tandem mass spectrometry in positive ion mode on an MDS Sciex API5000 equipped with a Turbo Ionspray® interface. The calibration range was 0.500 (LLOQ) to 200 ng/mL in mouse plasma.
(§1) Internal standard solution was added to the homogenate followed by neutralization with 20% ammonium hydroxide solution and addition of 500 μL 1% formic acid. The tissue samples were extracted by weak anion exchange solid phase extraction (SPE). Post extraction, the eluates were evaporated under nitrogen, followed by reconstitution before injection onto the LC-MS/MS system.

[6] = system: HCV genotype 1b replicon; assay: HCV replicon assay; format: cell-based; settings: Zluc (Huh-7-derived) cells, luciferase reporter, 72 hours; read-out: HCV Replicon EC50
Protocol: Huh-7-derived cell line (Zluc) that harbors an HCV genotype 1b replicon and a luciferase reporter gene was grown in Dulbecco's Modified Eagle Medium (DMEM) supplemented with 10% fetal bovine serum, 2 mM GlutaMAX, 1% MEM nonessential amino acids, 100 IU/mL penicillin, 100 μg/mL streptomycin, and 0.5 mg/mL Geneticin® (G418). For dose response testing the cells were seeded in 96-well plates at 7.5×10^3 cells per well in a volume of 50 μL, and incubated at 37° C./5% CO2. Drug solutions were made up freshly in Huh-7 media as 2× stocks. Ten additional 5-fold dilutions were prepared from these stocks in DMEM without G418. At least three hours after Zluc cells were seeded, drug treatment was initiated by adding 50 μL of drug dilutions to the plates in duplicate. Final concentrations of drug ranged from 100 μM to […]. Cells were then incubated at 37° C./5% CO2. Alternatively, compounds were tested at two concentrations (1 μM and 10 μM). […] For this, media was removed from the plates via gentle tapping. Fifty microliters of ONE-glo luciferase assay reagent was added to each well. The plates were shaken gently for 3 min at room temperature and luminescence was measured on a Victor^3 V 1420 multilabel counter (Perkin Elmer) with a 1 second read time using a 700 nm cut-off filter. The EC50 values were calculated from dose response curves from the resulting best-fit equations determined by Microsoft Excel and XLfit 4.1 software. When screening at two fixed concentrations, the results were expressed as % inhibition at 1 μM and 10 μM.

[7] = Liver triphosphate and plasma prodrug and nucleoside PK after single oral dose (Example 5); format: in vivo, Cynomolgus monkeys; settings: oral 10 mg/kg
Protocol: For each compound, a single oral dose at 10 mg/kg in PEG 200 (dose volume 3 mL/kg) was administered to cynomolgus monkeys. Untreated animals were used for the collection of control liver. Plasma samples were collected at 0.5, 1, 2, 4, 6, 8, 12 and 24 hours for compound 37, diastereomer 2.
Plasma samples were analyzed for the prodrug and nucleoside by LC-MS/MS. For protein precipitation and extraction, each plasma sample (50 μL) was treated with 500 μL of 0.2% formic acid in acetonitrile and 20 μL of an appropriate internal standard working solution. After vortexing and centrifugation, 500 μL of the sample extracts were transferred to a new plate, dried under N2 at ˜28° C. and reconstituted with 75 μL of 0.2% FA in water. The extracts were chromatographed on an Aquasil C18 column using a gradient system of 0.2% formic acid in water and acetonitrile. The analytes were detected and quantified by tandem mass spectrometry in positive ion mode on an MDS Sciex API4000 equipped with a Turbo Ionspray® interface.
as §1, with “Liver samples were analyzed for the relevant nucleoside triphosphate by LC-MS/MS. […] Appropriate internal” for “Internal”

SMILES: CCCCOC(=O)[C@@H](C)NP(=O)(OC[C@H]1O[C@@H](n2ccc(=O)[nH]c2=O)[C@](C)(Cl)[C@@H]1O)Oc1ccccc1 (single isomer, unassigned) [202i Diastereomer 1]
- CC50 [1]: > 50 µM

SMILES: C[C@@H](NP(=O)(OC[C@H]1O[C@@H](n2ccc(=O)[nH]c2=O)[C@](C)(Cl)[C@@H]1O)Oc1ccccc1)C(=O)OCc1ccccc1 (single isomer, unassigned) [205i Diastereomer 1]
- CC50 [1]: > 50 µM

SMILES: CC(C)OC(=O)[C@H](C)N[P@](=O)(OC[C@H]1O[C@@H](n2ccc(=O)[nH]c2=O)[C@](C)(F)[C@@H]1O)Oc1ccccc1 (single isomer, unassigned) [GS-7977, reference compound]
- Huh-7 AUC0-72 ([2]; Table 7): 63555 pmol*hr/10^6cells
- Hydrolysis by CatA [3]: hydrolyzed
- CatA hydrolysis ([3]; @ 18 h, 100 μM compound, 37° C., pH 6.0): 100% @
- CatA cleavage efficiency relative to the RP diastereoisomer ([3]; GS-7977 (SP) versus RP diastereoisomer): 10 times
- Hydrolysis by CES1 [4]: hydrolyzed
- CES1 hydrolysis ([4]; 3 h): 12%/3 h;
- CES1 hydrolysis ([4]; 21 h): 15%/21 h

SMILES: CC(C)OC(=O)[C@H](C)NP(=O)(OC[C@H]1O[C@@H](n2ccc(=O)[nH]c2=O)[C@](C)(Cl)[C@@H]1O)Oc1ccccc1 (single isomer, unassigned; diastereomer 1) [40ii Diastereomer 1]
- Huh-7 TP AUC ([2]; 10 μM test compound): 4380 pmol.hr/mill cells
- Huh-7 TP Cmax ([2]; 10 μM test compound): 123 pmol/mill cells
- Huh-7 TP (24 hr) ([2]; 10 μM test compound, 24 hr): 25
- Huh-7 TP (48 hr) ([2]; 10 μM test compound, 48 hr): 96
- Huh-7 TP (72 hr) ([2]; 10 μM test compound, 72 hr): 123
- Ms Plasma nucleoside AUC [5]: 0.00349 M·s
- Cmax ([5]; read-out: Ms Plasma nucleoside Cmax): 86 nM
- CC50 [1]: > 50 µM
- EC50 [6]: < 250 nM

- Nucleoside triphosphate in Liver C6 ([7]; 6 hours post dose, normalized to 1 μmol/kg dose): 1500 pmol/g
- Nucleoside triphosphate in Liver Tmax [7]: 12 h
- Plasma nucleoside Tmax [7]: 4 h
- Plasma prodrug Tmax [7]: 4 h
- Nucleoside triphosphate in Liver AUC0-24 ([7]; normalized to 1 μmol/kg dose): 29000 pmol·h/g
- Nucleoside triphosphate in Liver Cmax ([7]; normalized to 1 μmol/kg dose): 1700 pmol/g
- Plasma nucleoside AUC0-24 ([7]; normalized to 1 μmol/kg dose): 650 pmol·h/mL
- Plasma prodrug AUC0-24 ([7]; normalized to 1 μmol/kg dose): 4 µM·h
- Cmax ([7]; normalized to 1 μmol/kg dose, read-out: Plasma nucleoside Cmax): 51 nM
- Cmax ([7]; normalized to 1 μmol/kg dose, read-out: Plasma prodrug Cmax): 840 nM
SMILES: CC(C)OP1(=O)OC[C@H]2O[C@@H](n3ccc(=O)[nH]c3=O)[C@](C)(Cl)[C@@H]2O1 (single isomer, unassigned; diastereomer 2) [37 Diastereomer 2]

SMILES: CCCCOC(=O)[C@@H](C)NP(=O)(OC[C@H]1O[C@@H](n2ccc(=O)[nH]c2=O)[C@](C)(Cl)[C@@H]1O)Oc1ccccc1 (single isomer, unassigned; diastereomer 2) [202i Diastereomer 2]
- Ms Plasma nucleoside AUC [5]: 0.00612 M·s
- CC50 [1]: > 50 µM
- EC50 [6]: 250 to 1000 nM

SMILES: C[C@@H](NP(=O)(OC[C@H]1O[C@@H](n2ccc(=O)[nH]c2=O)[C@](C)(Cl)[C@@H]1O)Oc1ccccc1)C(=O)OCc1ccccc1 (single isomer, unassigned; diastereomer 2) [205i Diastereomer 2]
- Ms Plasma nucleoside AUC [5]: 0.00612 M·s
- CC50 [1]: > 50 µM
- EC50 [6]: 250 to 1000 nM
